Test results taken from patent publication US20130136794A1, “HETEROARYL (ALKYL) DITHIOCARBAMATE COMPOUNDS, PREPARATION METHODS AND USES THEREOF” (PEKING UNIVERSITY, priority 2010, published 2013).

Assays:
[1] = test system: human leukaemia HL-60 cells; assay: EC50 on proliferation of HL-60 cells (MTT, 48 h); format: cell-based; conditions: read-out: HL-60 EC50 (nmol)
Description: (§1) EC50 values of the compounds according to the present invention on the proliferation of human leukaemia HL-60 cells and Bel-7402 cells were determined by using the following method, and the results are shown in Table 2.
Testing method for EC50 values on the human leukaemia HL-60 cells: The human leukaemia HL-60 cells were cultured in vitro. The cells were collected after growth to logarithmic phase, and centrifugated at 1000 rpm for 5 min. The supernatant was discarded and the cells were suspended in an appropriate amount of medium. The cell concentration was adjusted to 1.2×10^4/mL. The cells were seeded into 96-well culture plates in 90 μL per well. For each well of the drug treatment groups, 10 μL of medium-diluted drug was added, whereas for the blank control groups, the same amount of medium was added. Every testing drug was set up for three parallel wells, and also three control wells with only testing drugs (without cell) were set up. Negative control groups were medium containing 0.5% DMSO. After the plate was incubated in an incubator for 48 h, 10 μL of 5 mg/mL MTT was added into each well, and then the plate was placed for 3 h at 37° C. 100 μL of ternary solution (5% SDS, 10 mM HCl, 5% isopropanol) was added into each well, and the plate was kept at 37° C. overnight. The absorbance (OD) was measured at 595 nm/620 nm. The EC50 values were calculated by using Prism Graphpad statistical software.

[2] = test system: Bel-7402 cells; assay: EC50 on proliferation of Bel7402 cells (SRB, 48 h); format: cell-based; conditions: Homo sapiens, read-out: Bel7402 EC50 (nmol)
Description: as §1
Testing method for ED50 values on the human Be17402ce11: After the cells were incubated with the addition of the drugs for 48 h, the plates were taken out. 50 μL of pre-cooled 500 g/L trichloroacetic acid was added into each well. The plates were kept in 4° C. refrigerator for 1 h after standing for 5 min, taken out, washed with deionized water for 5 times, and dried in the air. After the plates were completely dried, 100 μL of 0.4% SRB (formulated in 1% acetic acid) was added into each well. Following staining for 20 min, the staining solution was discarded, and the residue was washed with 1% acetic acid for 5 times to remove the uncombined dye. After being dried in the air, the residue was dissolved in 150 μL of 10 mmol/L unbuffered
Tris basic solution (pH=10.5), and oscillated in an oscillator for 5 min. The absorbance of each well at 490 nm was measured with TECAN enzyme mark instrument. The cells in background control plates were treated in the same way for measuring OD490. The EC50 values were calculated by using Prism Graphpad statistical software.

[3] = test system: KB human nasopharyngeal cancer; assay: Inhibition of tumor cell proliferation at 10 μM, Model D: SRB method; format: cell-based; conditions: read-out: Model D Inhibitory rate (%)
Text: (§2) The evaluation of the compounds according to the present invention on the inhibition rate of the proliferation of four different tumor cells, using the routine method for anti-tumor activity tests in the pharmaceutical filed, for example the method described in the following literature: (J. Immuno/Method, 1983, 65, 55).

[4] = test system: BGC-823 human gastric cancer; assay: Inhibition of tumor cell proliferation at 10 μM, Model B: SRB method; format: cell-based; conditions: BGC-823, SRB method, read-out: Model B Inhibitory rate (%)
Text: as §2

[5] = test system: HL-60 human leukaemia; assay: Inhibition of tumor cell proliferation at 10 μM, Model A: MTT method; format: cell-based; conditions: HL-60, MTT method, read-out: Model A Inhibitory rate (%)
Text: as §2

[6] = test system: Bel-7402 human liver cancer; assay: Inhibition of tumor cell proliferation at 10 μM, Model C: SRB method; format: cell-based; conditions: Bel-7402, SRB method, read-out: Model C Inhibitory rate (%)
Text: as §2

SMILES	EC50 [1]	EC50 [2]	melting point	inhibition at 10 µM [3]	inhibition at 10 µM [4]	inhibition at 10 µM [5]	inhibition at 10 µM [6]
CN(Cc1cccnc1)C(=S)SCCC#N [Compound 29, 2-cyanoethyl N-methyl-(pyridin-3-ylmethyl)dithiocarbamate]	0.134 µM	0.0022 µM					
N#CCCSC(=S)NCc1ccc(-c2ccco2)nc1 [Compound 25, 2-cyanoethyl{[6-(furan-2-yl)pyridin-3-yl]methyl}dithiocarbamate]	0.00478 µM	0.0211 µM	118 to 120 °C				
OB(O)CCSC(=S)NCc1ccco1 [Compound 6, 2-boronoethyl(furan-2-ylmethyl)dithiocarbamate]				1.68%	14.5%	0.06%	2.9%
N#CCCSC(=S)NCCc1cccnc1 [Compound 19, 2-cyanoethyl[2-(pyridin-3-yl)ethyl]dithiocarbamate]	0.000796 µM	0.0187 µM					
CN1CCOC2C=C(CNC(=S)SCCC#N)C=NC21 (stereo not shown) [Compound 26, 2-cyanoethyl[(4-methyl-3,4,4a,8a-tetrahydro-2/4-pyrido[3,2-b][1 ,4]oxazin-7-yl)-methyl]dithiocarbamate]	0.0822 µM	0.0964 µM	117 to 118 °C				
Cc1nc(-c2ccccc2)oc1CNC(=S)SCCC#N [Compound 34, 2-cyanoethyl[(4-methyl-2-phenyloxazol-5-yl)methyl]dithiocarbamate]	0.00788 µM	0.018 µM	221 to 224 °C				
N#CCCSC(=S)NCCCc1cccnc1 [Compound 42, 2-cyanoethyl[3-(pyridin-3-yl)propyl]dithiocarbamate]	0.00482 µM	0.00348 µM	81 to 83 °C				
COc1cncc(CNC(=S)SCCC#N)c1 [Compound 23, 2-cyanoethyl[(5-methoxypyridin-3-yl)methyl]dithiocarbamate]	0.000557 µM	0.0103 µM	86 to 90 °C				
N#CCCSC(=S)NCc1cnc2ccccc2c1 [Compound 18, 2-cyanoethyl(quinolin-3-ylmethyl)dithiocarbamate]	0.00518 µM	0.327 µM	120 to 122 °C				
Cc1cc(CNC(=S)SCCC#N)n(C)n1 [Compound 37, 2-cyanoethyl[(1,3-dimethyl-1H-pyrazol-5-yl)methyl]dithiocarbamate]	0.00417 µM	0.00426 µM					
NS(=O)(=O)CCSC(=S)NCc1cccnc1 [Compound 13, 2-sulfamoylethyl(pyridin-3-ylmethyl)dithiocarbamate]				17.6%	18.4%	-4.25%	5.87%
N#CCCSC(=S)NCc1ccco1 [Compound 3, 2-cyanoethyl(furan-2-ylmethyl)dithiocarbamate]				55.1%	29.5%	24.6%	68.2%
Cc1c(CNC(=S)SCCC#N)cnn1-c1ccccc1 [Compound 35, 2-cyanoethyl[(5-methyl-1-phenyl-1H-pyrazol-4-yl)methyl]dithiocarbamate]	0.00605 µM	0.0249 µM					
N#CCCSC(=S)NCc1cnc(N2CCOCC2)nc1 [Compound 41, 2-cyanoethyl[(2-morpholinopyrimidin-5-yl)methyl]dithiocarbamate]	0.00503 µM	0.0224 µM	151 to 154 °C				
N#CCCSC(=S)Nc1cccnc1 [Compound 30, 2-cyanoethyl pyridin-3-yldithiocarbamate]	0.0807 µM	0.286 µM					
COc1ncccc1CNC(=S)SCCC#N [Compound 20, 2-cyanoethyl[(2-methoxypyridin-3-yl)methyl]dithiocarbamate]	0.0008 µM	0.00767 µM	88 to 92 °C				
N#CCCSC(=S)NCc1nnc(-c2ccccc2)o1 [Compound 40, 2-cyanoethyl[(5-phenyl-1,3,4-oxadiazol-2-yl)methyl]dithiocarbamate]	0.0142 µM	0.0257 µM	148 to 152 °C				

SMILES	EC50 [1]	EC50 [2]	melting point	inhibition at 10 µM [3]	inhibition at 10 µM [4]	inhibition at 10 µM [5]	inhibition at 10 µM [6]
C[S+]([O-])CCSC(=S)NCc1cccnc1 (stereo not shown) [Compound 15, 2-(methylsulfinyl)ethyl(pyridin-3-ylmethyl)dithiocarbamate]				3.58%	9.95%	26.1%	-2.37%
N#CCCSC(=S)NC(c1ccccc1)c1cccnc1 (stereo not shown) [Compound 31, 2-cyanoethyl[phenyl(pyridin-3-yl)methyl]dithiocarbamate]	0.0047 µM	0.235 µM	118 to 120 °C				
N#CCCSC(=S)NCc1ccncc1 [Compound 28, 2-cyanoethyl(pyridin-4-ylmethyl)dithiocarbamate]	0.0565 µM	0.0105 µM					
COC(=O)CCSC(=S)NCc1cccnc1 [Compound 10, 2-(methoxycarbonyl)ethyl(pyridin-3-ylmethyl)dithiocarbamate]				91.5%	72%	61.9%	87.5%
CC(C)(C)C(=O)Nc1ccncc1CNC(=S)SCCC#N [Compound 17, 2-cyanoethyl[(4-pivalamidopyridin-3-yl)methyl]dithiocarbamate]	0.000473 µM	0.0323 µM	122 to 124 °C				
NS(=O)(=O)CCSC(=S)NCc1ccco1 [Compound 5, 2-sulfamoylethyl(furan-2-ylmethyl)dithiocarbamate]				31.6%	17.2%	17.3%	17.5%
N#CCCSC(=S)NCc1ccc(Oc2ccccc2)nc1 [Compound 27, 2-cyanoethyl[(6-phenoxypyridin-3-yl)methyl]dithiocarbamate]	0.000548 µM	0.0489 µM					
N#CCCSC(=S)NCc1cncnc1 [Compound 36, 2-cyanoethyl(pyrimidin-5-ylmethyl)dithiocarbamate]			168 to 171 °C				
COc1ccc(CNC(=S)SCCC#N)cn1 [Compound 33, 2-cyanoethyl[(6-methoxypyridin-3-yl)methyl]dithiocarbamate]	0.000813 µM	0.109 µM	90 to 92 °C				
N#CCCSC(=S)NCc1nnc(-c2ccccc2)s1 [Compound 45, 2-cyanoethyl[(5-phenyl-1,3,4-thiadiazol-2-yl)methyl]dithiocarbamate]	0.0118 µM	0.0186 µM	156 to 158 °C				
N#CCCSC(=S)NCc1ccc[nH]1 [Compound 46, 2-cyanoethyl[(1H-pyrrol-2-yl)methyl]dithiocarbamate]	0.283 µM	0.227 µM					
N#CCCSC(=S)NCc1cncc(Br)c1 [Compound 24, 2-cyanoethyl[(5-bromopyridin-3-yl)methyl]dithiocarbamate]	0.00491 µM	0.0205 µM	102 to 108 °C				
COC(=O)c1ccc(CNC(=S)SCCC#N)cn1 [Compound 21, 2-cyanoethyl[(6-methoxycarbonylpyridin-3-yl)methyl]dithiocarbamate]	0.00693 µM	0.116 µM	106 to 112 °C				
N#CCCSC(=S)NCc1cnccn1 [Compound 39, 2-cyanoethyl(pyrazin-2-ylmethyl)dithiocarbamate]	> 1 µM	> 1 µM	96 to 99 °C				
N#CCCSC(=S)NCc1nccs1 [Compound 38, 2-cyanoethyl(thiazol-2-ylmethyl)dithiocarbamate]	0.109 µM	0.296 µM	76 to 78 °C				
CC(NC(=S)SCCC#N)c1cccnc1 (stereo not shown) [Compound 32, 2-cyanoethyl[1-(pyridin-3-yl)ethyl]dithiocarbamate]	0.00328 µM	0.0648 µM					
Cc1cc(C)c(CNC(=S)SCCC#N)cn1 [Compound 22, 2-cyanoethyl[(4,6-dimethylpyridin-3-yl)methyl]dithiocarbamate]	0.00172 µM	0.0234 µM	138 to 142 °C				
